Laboratory results reported in the supplement of paper PMC10307832.

What was measured:
Assay in all cases: relative viability (nuclei count vs DMSO), 5 days (fraction); higher = more cells survive
OSI-027 + Navitoclax = compound: COc1cccc2cc(-c3nc([C@H]4CC[C@H](C(=O)O)CC4)n4ncnc(N)c34)[nH]c12 [OSI-027] + CC1(C)CCC(c2ccc(Cl)cc2)=C(CN2CCN(c3ccc(C(=O)NS(=O)(=O)c4ccc(N[C@H](CCN5CCOCC5)CSc5ccccc5)c(S(=O)(=O)C(F)(F)F)c4)cc3)CC2)C1 [Navitoclax] (partner 0.5 µM)
Method in brief: (§1)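 Values are medians from duplicate plates. Each reflects relative viability, defined as the nuclei count of treated wells over that of vehicle wells. Lung cancer cell lines in 1536-well plates were pin-tool dosed one day after seeding with one drug alone or with a fixed anchor-drug dose plus five library-drug doses (not always all listed) in √10 steps, then fixed, stained and imaged at 4× after 5 days.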

OSI-027 + Crizotinib = compound: COc1cccc2cc(-c3nc([C@H]4CC[C@H](C(=O)O)CC4)n4ncnc(N)c34)[nH]c12 [OSI-027] + C[C@@H](Oc1cc(-c2cnn(C3CCNCC3)c2)cnc1N)c1c(Cl)ccc(F)c1Cl [Crizotinib] (partner 1 µM)
Method in brief: as §1

Vemurafenib + Dasatinib = compound: CCCS(=O)(=O)Nc1ccc(F)c(C(=O)c2c[nH]c3ncc(-c4ccc(Cl)cc4)cc23)c1F [Vemurafenib] + Cc1nc(Nc2ncc(C(=O)Nc3c(C)cccc3Cl)s2)cc(N2CCN(CCO)CC2)n1 [Dasatinib] (partner 0.075 µM)
Method in brief: as §1

Vemurafenib + AZD7762 = compound: CCCS(=O)(=O)Nc1ccc(F)c(C(=O)c2c[nH]c3ncc(-c4ccc(Cl)cc4)cc23)c1F [Vemurafenib] + NC(=O)Nc1cc(-c2cccc(F)c2)sc1C(=O)N[C@H]1CCCNC1 [AZD7762] (partner 0.2 µM)
Method in brief: as §1

| Cell Line | relative viability (OSI-027 + Navitoclax; first compound 0.01 µM) | relative viability (OSI-027 + Navitoclax; first compound 0.03162 µM) | relative viability (OSI-027 + Navitoclax; first compound 0.1 µM) | relative viability (OSI-027 + Navitoclax; first compound 0.3162 µM) | relative viability (OSI-027 + Navitoclax; first compound 1 µM) | relative viability (OSI-027 + Crizotinib; first compound 0.01 µM) | relative viability (OSI-027 + Crizotinib; first compound 0.03162 µM) | relative viability (OSI-027 + Crizotinib; first compound 0.1 µM) | relative viability (OSI-027 + Crizotinib; first compound 0.3162 µM) | relative viability (OSI-027 + Crizotinib; first compound 1 µM) | relative viability (Vemurafenib + Dasatinib; first compound 0.03162 µM) | relative viability (Vemurafenib + Dasatinib; first compound 0.3162 µM) | relative viability (Vemurafenib + Dasatinib; first compound 1 µM) | relative viability (Vemurafenib + AZD7762; first compound 0.3162 µM) | relative viability (Vemurafenib + AZD7762; first compound 1 µM) | relative viability (Vemurafenib + AZD7762; first compound 0.1 µM) | relative viability (Vemurafenib + Dasatinib; first compound 0.1 µM) | relative viability (Vemurafenib + AZD7762; first compound 0.03162 µM) |
| --- | --- | --- | --- | --- | --- | --- | --- | --- | --- | --- | --- | --- | --- | --- | --- | --- | --- | --- |
| PC-3 [JPC-3] | 0.822 | 0.765 | 0.772 | 0.739 | 0.547 | 0.999 | 0.943 | 1.02 | 0.984 | 0.551 | 0.921 | 0.9 | 1.08 | 0.785 | 0.94 | – | – | – |
| NCI-H1648 | – | – | – | – | – | – | – | – | – | – | – | – | – | 1.23 | 0.779 | 0.571 | – | – |
| NCI-H1651 | 1.07 | – | 0.935 | 0.836 | 0.341 | 0.878 | 0.801 | 0.841 | 0.816 | 0.635 | 0.417 | 0.277 | 0.452 | 0.4 | 0.467 | 0.407 | 0.462 | 0.407 |
| NCI-H596 | 0.888 | 0.941 | 0.933 | 0.85 | 0.459 | 0.946 | 1.07 | 1.05 | 0.838 | 0.734 | 0.567 | 0.549 | 0.515 | 0.801 | 1.02 | 1.05 | 0.66 | 1.11 |
| HARA | 1.18 | 1.26 | 1.24 | 1.34 | 0.354 | 1.07 | 0.85 | 0.999 | 1.09 | 0.407 | 0.272 | 0.195 | 0.201 | 0.168 | 0.37 | 0.292 | 0.215 | 0.0775 |
| NCI-H727 | 0.406 | 0.418 | 0.477 | 0.378 | 0.318 | 0.626 | 0.862 | 0.798 | 0.655 | 0.517 | 0.323 | 0.724 | 0.421 | 0.744 | 0.59 | 0.468 | – | 0.555 |
| Calu-6 | 0.78 | 0.897 | 0.752 | 0.782 | 0.493 | 0.806 | 0.726 | 0.765 | 0.626 | 0.625 | – | – | – | – | – | – | – | – |
| NCI-H1993 | 0.89 | 0.863 | 0.659 | 0.502 | 0.719 | 0.783 | 0.77 | 0.678 | 0.565 | 0.56 | 0.298 | 0.694 | 0.621 | 0.804 | 0.966 | – | – | 0.657 |
| HCC-366 | 1.05 | 1.14 | 1.06 | 1.05 | 0.287 | 0.817 | 0.315 | 0.52 | 0.415 | 0.119 | 0.576 | 0.265 | 0.564 | – | 0.259 | 0.213 | 0.643 | 0.305 |
| IA-LM | 0.873 | 0.572 | 0.481 | 0.182 | 0.0688 | 0.96 | 0.578 | 0.78 | 0.249 | 0.139 | – | – | – | – | – | – | – | – |
| EPLC-272H | 1.07 | 0.901 | 1.18 | 0.897 | 1.04 | 1.05 | 0.872 | 0.944 | 0.697 | 0.787 | 0.299 | 0.338 | 0.41 | 0.156 | 0.218 | 0.166 | 0.25 | 0.251 |
| NCI-H441 | 0.47 | 0.57 | 0.425 | 0.47 | 0.185 | 0.679 | 0.613 | 0.633 | 0.604 | 0.338 | 0.565 | 0.838 | 0.542 | 1.16 | 1.03 | 1.1 | 0.663 | 1.09 |
| NCI-H1793 | 0.399 | 0.387 | 0.407 | 0.318 | 0.223 | – | – | – | – | – | 0.415 | 0.237 | 0.307 | 0.131 | 0.492 | 0.243 | – | 0.445 |
| 201T | 1.25 | 1.24 | 1.2 | 1.22 | 1.13 | 1.05 | 1.11 | 1.08 | 1.03 | 0.847 | 0.525 | 0.622 | 0.523 | 0.604 | 0.617 | 0.515 | 0.521 | 0.652 |
| NCI-H460 | 1.21 | 1.06 | 1.3 | 0.789 | 0.0638 | 0.888 | 0.714 | 1.06 | 0.759 | 0.184 | 0.469 | 0.341 | 0.537 | – | 0.619 | 0.604 | 0.545 | 0.579 |
| NCI-H1666 | 0.912 | 0.878 | 0.662 | 0.575 | 0.391 | 1 | 1.09 | 0.754 | 0.76 | 0.524 | 0.741 | 0.644 | 0.709 | 0.729 | 0.829 | 0.73 | 0.837 | 0.782 |
| HOP-62 | 1.11 | 1.09 | 1.02 | 1.13 | 0.646 | 1.02 | 0.922 | 0.999 | 1.36 | 0.428 | 0.535 | 0.292 | 0.66 | 0.395 | 0.668 | 0.558 | 0.549 | 0.551 |
| SW 1573 | 0.889 | 1.05 | 0.902 | 0.757 | 0.504 | 0.855 | 0.832 | 0.687 | 0.655 | 0.566 | 0.567 | 0.36 | 0.347 | – | – | – | 0.428 | – |
| NCI-H2085 | 1.11 | 1.12 | 1.1 | 0.931 | 0.7 | 0.807 | 0.852 | 0.825 | 0.812 | 0.586 | 0.244 | 0.515 | 0.256 | 0.928 | 0.997 | 0.804 | 0.273 | 0.893 |
| ABC-1 | – | – | – | – | – | 1.23 | 0.881 | 1.1 | 0.957 | 0.47 | – | – | 0.567 | 0.622 | 0.813 | 0.775 | 0.563 | 0.668 |
